Test results as given in patent publication US4863741A, “Tablet composition for drug combinations” (Abbott Laboratories, priority 1989, dated 1989).
Like-named read-outs stand apart in the source and are kept apart here.

Format: physicochemical
Conditions: for t90 (time required for 10% destruction of erythromycin activity): 25° C.; for t50 (time required for 50% destruction of erythromycin activity): water
Description: To evaluate the feasibility of a single, non-enteric coated preparation containing erythromycin, the times required for 50% destruction of erythromycin activity t50) and 10% destruction of erythromycin activity t90) in aqueous solution at 25° C. were calculated as a function of pH from data reported in the literature.

With `CC[C@H]1OC(=O)[C@H](C)[C@@H](O[C@H]2C[C@@](C)(OC)[C@@H](O)[C@H](C)O2)[C@H](C)[C@@H](O[C@@H]2O[C@H](C)C[C@H](N(C)C)[C@H]2O)[C@](C)(O)C[C@@H](C)C(=O)[C@H](C)[C@@H](O)[C@]1(C)O` [erythromycin] the “t90 (time required for 10% destruction of erythromycin activity)” value (pH 3.0, aqueous solution) was 1.52 min, the “t90 (time required for 10% destruction of erythromycin activity)” value (pH 3.5, aqueous solution) was 528 min and the “t90 (time required for 10% destruction of erythromycin activity)” value (pH 4.0, aqueous solution) was 15.2 min. The “t90 (time required for 10% destruction of erythromycin activity)” value (pH 4.5, aqueous solution) was 52.8 min, the “t90 (time required for 10% destruction of erythromycin activity)” value (pH 5.0, aqueous solution) was 152 min and the “t90 (time required for 10% destruction of erythromycin activity)” value (pH 5.5, aqueous solution) was 528 min. The “t90 (time required for 10% destruction of erythromycin activity)” value (pH 6.0, aqueous solution) was 1530 min, the “t50 (time required for 50% destruction of erythromycin activity)” value (pH 3) was 0.167 h and the “t50 (time required for 50% destruction of erythromycin activity)” value (pH 3.5) was 0.578 h. For the same compound, the “t50 (time required for 50% destruction of erythromycin activity)” value (pH 4) was 1.67 h, the “t50 (time required for 50% destruction of erythromycin activity)” value (pH 4.5) was 5.79 h and the “t50 (time required for 50% destruction of erythromycin activity)” value (pH 5) was 16.7 h. For the same compound, the “t50 (time required for 50% destruction of erythromycin activity)” value (pH 5.5) was 57.8 h and the “t50 (time required for 50% destruction of erythromycin activity)” value (pH 6) was 167 h.
